The term IC50 denotes the concentration that gives 50% inhibition.

Among the data in patent US10752624B2, “Kinase inhibitors” (Origenis GmbH, priority 2012, dated 2020) are IC50 values, retold here.

One assay has as its target T1, SYK kinase (Homo sapiens, UniProt P43405).
T1 construct: purchased Invitrogen, Carlsbad
As to the kind of experiment: SYK Assay (OMNIA Kinase Assay, SOX peptide fluorescence). The settings on record: 1 mM ATP, 10 μM Omnia Peptide Substrate Tyr 7, 30° C., readings for 30 minutes; read-out: SYK Activities: IC50. Format: biochemical. In short, it runs like this:
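The reaction was run at 30 °C with 1 mM ATP, 0.2 mM DTT and 10 μM Omnia Tyr 7 peptide (final) and started by adding SYK. Chelation-enhanced SOX fluorescence (ex 360/em 485 nm) was read every 30 s for 30 min. Reaction velocity versus inhibitor concentration was fitted sigmoidally for IC50.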

A further assay deals with LRRK2 (Homo sapiens, UniProt Q5S007). Nature of the assay: LRRK2-LRRK2 G2019S-Assay (LanthaScreen Eu Kinase Binding Assay). Conditions: 5 nM LRRK2, 10 nM tracer 236, 2 nM EU-Anti-GST antibody, 1 h at RT; read-out: LRRK2 Activities: IC50. The method in brief: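 Compound competition with Alexa Fluor 647 tracer 236 (10 nM) was measured after 1 h at room temperature, using 5 nM LRRK2 (wild type or mutant) bound to 2 nM Eu-anti-GST antibody. IC50 was derived from the acceptor/donor (665/615 nm) ratio using a variable-slope dose-response fit.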
Chain of LRRK2 (Q5S007 970-2527 limits assumed): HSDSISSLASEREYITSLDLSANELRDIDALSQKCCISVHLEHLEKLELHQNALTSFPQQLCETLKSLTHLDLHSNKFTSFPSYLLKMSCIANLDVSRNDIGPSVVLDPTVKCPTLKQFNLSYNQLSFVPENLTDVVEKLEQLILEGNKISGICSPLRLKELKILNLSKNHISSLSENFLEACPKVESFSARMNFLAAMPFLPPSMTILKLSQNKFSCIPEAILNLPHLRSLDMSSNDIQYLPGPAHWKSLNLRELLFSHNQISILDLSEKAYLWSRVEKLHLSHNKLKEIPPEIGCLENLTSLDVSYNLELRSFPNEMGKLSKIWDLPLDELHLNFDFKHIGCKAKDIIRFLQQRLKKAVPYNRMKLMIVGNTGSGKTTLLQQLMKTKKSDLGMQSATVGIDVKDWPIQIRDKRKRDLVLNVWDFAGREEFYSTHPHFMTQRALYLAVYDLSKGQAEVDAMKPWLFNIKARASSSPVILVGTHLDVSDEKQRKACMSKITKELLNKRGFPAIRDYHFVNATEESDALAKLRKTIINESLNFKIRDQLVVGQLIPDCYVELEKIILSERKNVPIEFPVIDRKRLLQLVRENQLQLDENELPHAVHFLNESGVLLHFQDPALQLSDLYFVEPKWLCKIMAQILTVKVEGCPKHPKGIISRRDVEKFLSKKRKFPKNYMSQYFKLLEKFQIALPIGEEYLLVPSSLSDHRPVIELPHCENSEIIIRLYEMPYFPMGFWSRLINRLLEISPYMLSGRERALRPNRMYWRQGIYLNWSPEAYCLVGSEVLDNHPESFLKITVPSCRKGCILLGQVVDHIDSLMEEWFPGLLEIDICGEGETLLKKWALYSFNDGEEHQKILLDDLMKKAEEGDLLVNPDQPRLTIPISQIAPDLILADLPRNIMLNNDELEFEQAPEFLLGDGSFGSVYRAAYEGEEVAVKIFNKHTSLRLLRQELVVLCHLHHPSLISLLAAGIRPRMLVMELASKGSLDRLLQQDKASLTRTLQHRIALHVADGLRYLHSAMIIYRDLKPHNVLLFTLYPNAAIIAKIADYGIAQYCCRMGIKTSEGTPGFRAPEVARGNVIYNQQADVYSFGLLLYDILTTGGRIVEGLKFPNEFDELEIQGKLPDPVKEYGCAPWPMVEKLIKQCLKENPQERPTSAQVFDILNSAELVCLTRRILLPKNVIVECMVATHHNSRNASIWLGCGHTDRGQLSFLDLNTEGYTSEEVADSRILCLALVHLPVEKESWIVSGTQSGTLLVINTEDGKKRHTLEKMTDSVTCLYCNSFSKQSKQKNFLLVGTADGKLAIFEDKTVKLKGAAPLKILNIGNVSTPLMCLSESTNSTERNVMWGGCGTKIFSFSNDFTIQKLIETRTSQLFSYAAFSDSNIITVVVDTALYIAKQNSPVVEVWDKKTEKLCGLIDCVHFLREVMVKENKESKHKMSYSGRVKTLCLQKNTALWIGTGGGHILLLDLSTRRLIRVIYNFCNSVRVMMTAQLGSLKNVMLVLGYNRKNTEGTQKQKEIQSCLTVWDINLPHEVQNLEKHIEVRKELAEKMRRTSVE
A general note: Time-resolved FRET reads energy transfer from a long-lived donor to a nearby acceptor.

As for `COCCCn1cc(Nc2nc3ccc(S(C)(=O)=O)cc3c3cn[nH]c23)cn1` [Example 178, N-(1-(3-methoxypropyl)-1H-pyrazol-4-yl)-8-(methylsulfonyl)-3H-pyrazolo[3,4-c]quinolin-4-amine], the IC50 on SYK kinase is 10 to 100 nM; on LRRK2, < 10 nM.

`COC(C)(C)Cn1cc(Nc2nc3ccc(S(C)(=O)=O)cc3c3cn[nH]c23)cn1` [Example 315, N-(1-(2-methoxy-2-methylpropyl)-1H-pyrazol-4-yl)-8-(methylsulfonyl)-3H-pyrazolo[3,4-c]quinolin-4-amine]: the IC50 at SYK kinase and on LRRK2 was 10 to 100 nM in each case.

Consider `COCCn1cc(Nc2nc3cc(SC)ccc3c3cn[nH]c23)cn1` [Example 171, N-(1-(2-methoxyethyl)-1H-pyrazol-4-yl)-7-(methylthio)-3H-pyrazolo[3,4-c]quinolin-4-amine], for which the IC50 at SYK kinase and on LRRK2 was 100 to 1000 nM each time.

On to `Cc1ccc2nc(Nc3ccc(N4CCOCC4)cc3)c3[nH]ncc3c2c1` [Example 74, 8-methyl-N-(4-morpholinophenyl)-3H-pyrazolo[3,4-c]quinolin-4-amine], for which the half-maximal inhibitory concentration (IC50) at SYK kinase was in the range of 100 to 1000 nM; on LRRK2, 10 to 100 nM.

`CN1C(=O)COc2ccc(Nc3nc4ccc(S(C)(=O)=O)cc4c4c[nH]nc34)cc21` [Example 328, 4-methyl-6-((8-(methylsulfonyl)-2H-pyrazolo[3,4-c]quinolin-4-yl)amino)-2H-benzo[b][1,4]oxazin-3(4H)-one]: the IC50 on SYK kinase fell in the range of 100 to 1000 nM; on LRRK2, 10 to 100 nM.

For `COc1cc(OC)c2nc(Nc3ccc(N4CCOCC4)cc3)c3[nH]ncc3c2c1` [Example 288, 6,8-dimethoxy-N-(4-morpholinophenyl)-3H-pyrazolo[3,4-c]quinolin-4-amine], the IC50 on SYK kinase was 100 to 1000 nM; on LRRK2, 10 to 100 nM.

With `CS(=O)(=O)c1ccc2nc(Nc3ccc(C(=O)N4CCOCC4)c(F)c3)c3[nH]ncc3c2c1` [Example 175, (2-fluoro-4-((8-(methylsulfonyl)-3H-pyrazolo[3,4-c]quinolin-4-yl)amino)phenyl)(morpholino)methanone], the 50% inhibitory concentration (IC50) on SYK kinase was in the range of 100 to 1000 nM; at LRRK2, 10 to 100 nM.

Consider `COc1cccc2nc(Nc3cnn(C4CC4)c3)c3[nH]ncc3c12` [Example 201, N-(1-cyclopropyl-1H-pyrazol-4-yl)-9-methoxy-3H-pyrazolo[3,4-c]quinolin-4-amine], for which the IC50 at SYK kinase was 100 to 1000 nM; on LRRK2 it was < 10 nM.

Regarding `COc1ccc2nc(Nc3cnn(C4CCN(C(C)(C)C)CC4)c3)c3[nH]ncc3c2c1` [Example 300, N-(1-(1-(tert-butyl)piperidin-4-yl)-1H-pyrazol-4-yl)-8-methoxy-3H-pyrazolo[3,4-c]quinolin-4-amine], the concentration for half-maximal inhibition (IC50) fell in the range of 100 to 1000 nM on SYK kinase and 10 to 100 nM at LRRK2.

As for `C=C(C)Cn1cc(Nc2nc3ccc(S(C)(=O)=O)cc3c3cn[nH]c23)cn1` [Example 264, N-(1-(2-methylallyl)-1H-pyrazol-4-yl)-8-(methylsulfonyl)-3H-pyrazolo[3,4-c]quinolin-4-amine], the IC50 at SYK kinase is 10 to 100 nM; at LRRK2, < 10 nM.

With `COc1c(Nc2nc3ccc(S(C)(=O)=O)cc3c3cn[nH]c23)cnn1C(C)C` [Example 227, N-(1-isopropyl-5-methoxy-1H-pyrazol-4-yl)-8-(methylsulfonyl)-3H-pyrazolo[3,4-c]quinolin-4-amine], the results for the IC50 on SYK kinase and at LRRK2 were 100 to 1000 nM and < 10 nM, respectively.

As to `COc1cccc2nc(Nc3cnn(CC(C)C)c3)c3[nH]ncc3c12` [Example 198, N-(1-isobutyl-1H-pyrazol-4-yl)-9-methoxy-3H-pyrazolo[3,4-c]quinolin-4-amine], the IC50 at SYK kinase was 100 to 1000 nM; on LRRK2, < 10 nM.

For the compound `CN1CCN(c2ccc(Nc3nc4ccc(S(C)(=O)=O)cc4c4cn[nH]c34)cn2)CC1` [Example 81, N-(6-(4-methylpiperazin-1-yl)pyridin-3-yl)-8-(methylsulfonyl)-3H-pyrazolo[3,4-c]quinolin-4-amine], the IC50 lay within 100 to 1000 nM on SYK kinase and 10 to 100 nM on LRRK2.

Turning to `CC(C)n1cc(Nc2nc3ccc(S(C)(=O)=O)cc3c3cn[nH]c23)cn1` [Example 180, N-(1-isopropyl-1H-pyrazol-4-yl)-8-(methylsulfonyl)-3H-pyrazolo[3,4-c]quinolin-4-amine], the IC50 at SYK kinase and at LRRK2 was < 10 nM each time.

Regarding `COc1ccc2nc(Nc3cnn(CC(C)(C)O)c3)c3[nH]ncc3c2c1` [Example 298, 1-(4-((8-methoxy-3H-pyrazolo[3,4-c]quinolin-4-yl)amino)-1H-pyrazol-1-yl)-2-methylpropan-2-ol], the values for the IC50 at SYK kinase and at LRRK2 were 100 to 1000 nM and 10 to 100 nM, respectively.

With `CC(C)Cn1cc(Nc2nc3ccc(S(C)(=O)=O)cc3c3cn[nH]c23)cn1` [Example 187, N-(1-isobutyl-1H-pyrazol-4-yl)-8-(methylsulfonyl)-3H-pyrazolo[3,4-c]quinolin-4-amine], the IC50 at SYK kinase was 10 to 100 nM; at LRRK2, < 10 nM.

With `CS(=O)(=O)c1ccc2c(c1)nc(Nc1ccc(N3CCOCC3)cc1)c1[nH]ncc12` [Example 101, 7-(methylsulfonyl)-N-(4-morpholinophenyl)-3H-pyrazolo[3,4-c]quinolin-4-amine], the half-inhibitory concentration (IC50) was in the range of 100 to 1000 nM at SYK kinase and 10 to 100 nM on LRRK2.

As to `COc1cccc2nc(Nc3ccc(N4CCN(C)CC4)nc3)c3[nH]ncc3c12` [Example 79, 9-methoxy-N-(6-(4-methylpiperazin-1-yl)pyridin-3-yl)-3H-pyrazolo[3,4-c]quinolin-4-amine], the results for the IC50 on SYK kinase and at LRRK2 were 100 to 1000 nM and 10 to 100 nM, respectively.

In the case of `COCCn1cc(Nc2nc3ccc(OC)cc3c3c[nH]nc23)cn1` [Example 109, 8-methoxy-N-(1-(2-methoxyethyl)-1H-pyrazol-4-yl)-2H-pyrazolo[3,4-c]quinolin-4-amine], the IC50 on SYK kinase was in the range of 100 to 1000 nM; on LRRK2 it was 10 to 100 nM.

Regarding `CC(C)(C)N1CCC(n2cc(Nc3nc4ccc(S(C)(=O)=O)cc4c4cn[nH]c34)cn2)CC1` [Example 211, N-(1-(1-(tert-butyl)piperidin-4-yl)-1H-pyrazol-4-yl)-8-(methylsulfonyl)-3H-pyrazolo[3,4-c]quinolin-4-amine], the IC50 on SYK kinase and on LRRK2 was < 10 nM throughout.

Turning to `COc1ccc2nc(Nc3cnn(C4CC4)c3)c3[nH]ncc3c2c1` [Example 293, N-(1-cyclopropyl-1H-pyrazol-4-yl)-8-methoxy-3H-pyrazolo[3,4-c]quinolin-4-amine], the IC50 on SYK kinase and at LRRK2 was 10 to 100 nM in each case.

Take `COCCCn1cc(Nc2nc3ccc(OC)cc3c3cn[nH]c23)cn1` [Example 287, 8-methoxy-N-(1-(3-methoxypropyl)-1H-pyrazol-4-yl)-3H-pyrazolo[3,4-c]quinolin-4-amine]: the values for the IC50 on SYK kinase and on LRRK2 were 10 to 100 nM and < 10 nM, respectively.

Take `CS(=O)(=O)c1ccc2c(c1)nc(Nc1cnn(C3CCOCC3)c1)c1[nH]ncc12` [Example 120, 7-(methylsulfonyl)-N-(1-(tetrahydro-2H-pyran-4-yl)-1H-pyrazol-4-yl)-3H-pyrazolo[3,4-c]quinolin-4-amine]: the IC50 was 10 to 100 nM on SYK kinase and < 10 nM at LRRK2.

With `CC(=O)N1CCN(c2ccc(Nc3nc4ccc(C)cc4c4cn[nH]c34)cc2)CC1` [Example 73, 1-(4-(4-((8-methyl-3H-pyrazolo[3,4-c]quinolin-4-yl)amino)phenyl)piperazin-1-yl)ethan-1-one], the IC50 was 100 to 1000 nM on SYK kinase and 10 to 100 nM at LRRK2.

As for `COCCn1ncc(Nc2nc3ccc(S(C)(=O)=O)cc3c3cn[nH]c23)c1C#N` [Example 249, 1-(2-methoxyethyl)-4-((8-(methylsulfonyl)-3H-pyrazolo[3,4-c]quinolin-4-yl)amino)-1H-pyrazole-5-carbonitrile], the half-maximal inhibitory concentration (IC50) at SYK kinase fell in the range of 100 to 1000 nM; on LRRK2 it was 10 to 100 nM.

Take `COCC(COC)n1cc(Nc2nc3cccc(OC)c3c3cn[nH]c23)cn1` [Example 340, N-(1-(1,3-dimethoxypropan-2-yl)-1H-pyrazol-4-yl)-9-methoxy-3H-pyrazolo[3,4-c]quinolin-4-amine]: the IC50 is 100 to 1000 nM on SYK kinase and < 10 nM at LRRK2.

As to `CS(=O)(=O)c1ccc2nc(Nc3ccc(O)cc3)c3n[nH]cc3c2c1` [Example 349, 4-((8-(methylsulfonyl)-2H-pyrazolo[3,4-c]quinolin-4-yl)amino)phenol], the IC50 at SYK kinase was < 10 nM; at LRRK2, 10 to 100 nM.
